Active and inactive are the calls of the source. No cut-off for these calls is given here.
Tests used:
Escherichia coli [1] = test: Antibacterial activity against Escherichia coli TP1 harboring pBR322 carrying TEM-12 assessed as inhibition of bacterial growth at <=16 ug/ml after 18 hrs; type: functional, organism-based
Escherichia coli [2] = test: Antibacterial activity against Escherichia coli TP1 harboring pBR322 carrying TEM-10 assessed as inhibition of bacterial growth at >64 ug/ml after 18 hrs; type: functional, organism-based
Escherichia coli [3] = system: Escherichia coli
Description: Ratio of Kcat to Km for Escherichia coli Beta-Lactamase TEM-12

| Structure (SMILES) | inhibition (Escherichia coli [1]) | inhibition (Escherichia coli [2]) | kcat/Km (Escherichia coli [3]) |
| --- | --- | --- | --- |
| CC(C)(O/N=C(\C(=O)N[C@@H]1C(=O)N2C(C(=O)[O-])=C(C[n+]3ccccc3)CS[C@H]12)c1csc(N)n1)C(=O)O | inactive | Active |  |
| CC1(C)S[C@@H]2[C@H](NC(=O)[C@H](N)c3ccccc3)C(=O)N2[C@H]1C(=O)O |  |  | 4.2 ×10⁷ /M/s |

— ChEMBL document CHEMBL1275444, “Fitness trade-offs in blaTEM evolution” (2008)
